Common to all, as to format: functional, cell-based
In series [1] the target is T1, Solute carrier family 22 member 11 (Homo sapiens, UniProt Q9NSA0).
T1 sequence (Q9NSA0 whole entry): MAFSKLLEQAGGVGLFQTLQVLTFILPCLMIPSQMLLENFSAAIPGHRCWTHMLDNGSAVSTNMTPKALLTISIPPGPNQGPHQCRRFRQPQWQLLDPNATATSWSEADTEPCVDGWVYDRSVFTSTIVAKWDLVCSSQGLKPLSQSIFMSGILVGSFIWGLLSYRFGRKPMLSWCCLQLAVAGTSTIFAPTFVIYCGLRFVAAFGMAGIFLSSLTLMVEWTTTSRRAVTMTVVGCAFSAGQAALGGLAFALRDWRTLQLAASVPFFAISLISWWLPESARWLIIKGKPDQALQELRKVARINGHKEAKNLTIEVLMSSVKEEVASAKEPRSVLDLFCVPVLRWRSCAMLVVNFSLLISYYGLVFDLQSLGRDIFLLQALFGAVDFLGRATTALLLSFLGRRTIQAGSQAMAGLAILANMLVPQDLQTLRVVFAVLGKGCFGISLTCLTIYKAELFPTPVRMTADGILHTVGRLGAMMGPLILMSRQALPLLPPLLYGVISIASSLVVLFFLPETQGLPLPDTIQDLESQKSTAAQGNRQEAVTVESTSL
Description: TP_TRANSPORTER: inhibition of E1S uptake (E1S: 0.05 uM, Doxycycline: 50 uM) in OAT4-expressing S2 cells. As to conditions: mouse, s2, 50 µM.

In series [2] the target is T2, Organic anion transporter 3 (Homo sapiens, UniProt Q8TCC7).
T2 sequence (Q8TCC7 whole entry): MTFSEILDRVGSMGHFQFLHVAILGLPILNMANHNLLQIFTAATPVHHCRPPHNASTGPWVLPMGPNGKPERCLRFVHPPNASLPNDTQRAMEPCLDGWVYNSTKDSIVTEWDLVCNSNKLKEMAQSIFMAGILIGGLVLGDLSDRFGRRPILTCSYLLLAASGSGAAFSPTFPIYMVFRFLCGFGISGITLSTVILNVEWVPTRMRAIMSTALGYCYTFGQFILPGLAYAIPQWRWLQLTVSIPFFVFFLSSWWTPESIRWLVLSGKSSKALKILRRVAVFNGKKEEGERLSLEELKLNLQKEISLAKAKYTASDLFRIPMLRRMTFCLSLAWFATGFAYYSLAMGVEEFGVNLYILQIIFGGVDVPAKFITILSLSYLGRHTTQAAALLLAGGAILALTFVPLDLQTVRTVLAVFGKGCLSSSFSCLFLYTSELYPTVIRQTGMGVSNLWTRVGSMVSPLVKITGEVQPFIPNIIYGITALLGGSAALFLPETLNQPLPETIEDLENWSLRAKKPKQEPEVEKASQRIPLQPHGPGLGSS
In words: TP_TRANSPORTER: inhibition of E1S uptake (E1S: 0.05 uM, Doxycycline: 50 uM) in OAT3-expressing S2 cells. As to conditions: s2, 50 µM.

Series [3] deals with T3, Solute carrier family 22 member 6 (Homo sapiens, UniProt Q4U2R8).
T3 sequence (Q4U2R8 whole entry): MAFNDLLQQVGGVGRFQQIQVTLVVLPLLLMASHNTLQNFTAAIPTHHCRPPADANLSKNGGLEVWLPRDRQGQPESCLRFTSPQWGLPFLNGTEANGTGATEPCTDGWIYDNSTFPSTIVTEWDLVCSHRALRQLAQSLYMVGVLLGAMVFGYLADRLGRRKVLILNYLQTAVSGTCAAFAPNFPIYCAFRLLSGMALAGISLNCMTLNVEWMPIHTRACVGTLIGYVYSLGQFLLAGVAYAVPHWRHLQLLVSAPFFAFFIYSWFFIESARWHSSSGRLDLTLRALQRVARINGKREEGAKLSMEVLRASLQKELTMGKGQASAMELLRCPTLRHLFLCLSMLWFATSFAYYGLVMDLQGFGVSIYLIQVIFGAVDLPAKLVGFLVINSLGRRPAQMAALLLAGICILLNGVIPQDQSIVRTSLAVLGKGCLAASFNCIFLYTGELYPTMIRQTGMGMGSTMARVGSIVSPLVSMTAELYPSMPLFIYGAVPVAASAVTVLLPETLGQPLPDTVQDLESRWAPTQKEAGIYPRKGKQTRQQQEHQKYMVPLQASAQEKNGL
Description: TP_TRANSPORTER: inhibition of PAH uptake (PAH: 5 uM, Doxycycline: 500 uM) in OAT1-expressing S2 cells. As to conditions: s2, 500 µM.

The target of series [4] is T4, Solute carrier family 22 member 7 (Homo sapiens, UniProt Q9Y694).
T4 sequence (Q9Y694 whole entry): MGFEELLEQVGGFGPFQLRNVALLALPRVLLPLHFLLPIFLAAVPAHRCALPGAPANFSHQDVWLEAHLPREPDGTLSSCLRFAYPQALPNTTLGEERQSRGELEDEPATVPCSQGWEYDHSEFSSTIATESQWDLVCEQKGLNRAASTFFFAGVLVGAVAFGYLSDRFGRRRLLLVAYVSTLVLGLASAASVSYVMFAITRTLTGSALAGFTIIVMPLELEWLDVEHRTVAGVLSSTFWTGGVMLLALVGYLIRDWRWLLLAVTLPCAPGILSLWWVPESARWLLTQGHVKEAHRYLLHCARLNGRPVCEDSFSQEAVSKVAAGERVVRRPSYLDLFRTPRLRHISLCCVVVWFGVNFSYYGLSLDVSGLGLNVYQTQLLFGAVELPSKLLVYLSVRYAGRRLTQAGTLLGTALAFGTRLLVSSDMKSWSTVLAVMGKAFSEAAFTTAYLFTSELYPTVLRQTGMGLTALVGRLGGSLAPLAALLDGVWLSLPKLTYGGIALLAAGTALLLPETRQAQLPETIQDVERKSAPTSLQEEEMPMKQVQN
In words: TP_TRANSPORTER: inhibition of PGF2alpha uptake (PGF2alpha: 0.005 uM, Minocycline: 5 uM) in OAT2-expressing S2 cells. As to conditions: s2, 5 µM.

Series [5] addresses T1, Solute carrier family 22 member 11. In words: TP_TRANSPORTER: inhibition of E1S uptake (E1S: 0.05 uM, Minocycline: 50 uM) in OAT4-expressing S2 cells. As to conditions: mouse, s2, 50 µM.
Series [6] concerns the target T2, Organic anion transporter 3. Description: TP_TRANSPORTER: inhibition of E1S uptake (E1S: 0.05 uM, Minocycline: 50 uM) in OAT3-expressing S2 cells. The conditions noted are these: s2, 50 µM.
The target of series [7] is T3, Solute carrier family 22 member 6. Description: TP_TRANSPORTER: inhibition of PAH uptake (PAH: 5 uM, Minocycline: 500 uM) in OAT1-expressing S2 cells. The conditions noted are these: s2, 500 µM.
The target in series [8] is T4, Solute carrier family 22 member 7. In words: TP_TRANSPORTER: inhibition of PGF2alpha uptake (PGF2alpha: 0.005 uM, Oxytetracycline: 5 uM) in OAT2-expressing S2 cells. As to conditions: s2, 5 µM.
In series [9] the target is T1, Solute carrier family 22 member 11. In words: TP_TRANSPORTER: inhibition of E1S uptake (E1S: 0.05 uM, Oxytetracycline: 50 uM) in OAT4-expressing S2 cells. As to conditions: mouse, s2, 50 µM.
Series [10] has as its target T2, Organic anion transporter 3. Description: TP_TRANSPORTER: inhibition of E1S uptake (E1S: 0.05 uM, Oxytetracycline: 50 uM) in OAT3-expressing S2 cells. As to conditions: s2, 50 µM.
The target of series [11] is T3, Solute carrier family 22 member 6. Description: TP_TRANSPORTER: inhibition of PAH uptake (PAH: 5 uM, Oxytetracycline: 500 uM) in OAT1-expressing S2 cells. The conditions noted are these: mouse, s2, 500 µM.
The target in series [12] is T4, Solute carrier family 22 member 7. In words: TP_TRANSPORTER: inhibition of PGF2alpha uptake (PGF2alpha: 0.005 uM, Tetracycline: 5 uM) in OAT2-expressing S2 cells. As to conditions: mouse, s2, 5 µM.
In series [13] the target is T1, Solute carrier family 22 member 11. In words: TP_TRANSPORTER: inhibition of E1S uptake (E1S: 0.05 uM, Tetracycline: 50 uM) in OAT4-expressing S2 cells. As to conditions: mouse, s2, 50 µM.
The target in series [14] is T2, Organic anion transporter 3. In words: TP_TRANSPORTER: inhibition of E1S uptake (E1S: 0.05 uM, Tetracycline: 50 uM) in OAT3-expressing S2 cells. As to conditions: mouse, s2, 50 µM.
Series [15] deals with T3, Solute carrier family 22 member 6. Description: TP_TRANSPORTER: inhibition of PAH uptake (PAH: 5 uM, Tetracycline: 1000 uM) in OAT1-expressing S2 cells. The conditions noted are these: s2, 1000 µM.
Substrate in series [16]: CN(C)[C@@H]1C(O)=C(C(N)=O)C(=O)[C@@]2(O)C(O)=C3C(=O)c4c(O)cccc4[C@@](C)(O)[C@H]3C[C@@H]12
Description: TP_TRANSPORTER: uptake in OAT2-expressing S2 cells.

Substrate in series [17]: CN(C)[C@@H]1C(O)=C(C(N)=O)C(=O)[C@@]2(O)C(O)=C3C(=O)c4c(O)cccc4[C@@](C)(O)[C@H]3C[C@@H]12
Description: TP_TRANSPORTER: uptake in OAT4-expressing S2 cells.

Substrate in series [18]: CN(C)[C@@H]1C(O)=C(C(N)=O)C(=O)[C@@]2(O)C(O)=C3C(=O)c4c(O)cccc4[C@@](C)(O)[C@H]3C[C@@H]12
Description: TP_TRANSPORTER: uptake in OAT3-expressing S2 cells.

The results in this text go back to ChEMBL document CHEMBL2074363, “Human organic anion transporters mediate the transport of tetracycline” (Jpn J Pharmacol, 2002).

As a reminder, the Km is the substrate concentration at which the rate is half of its maximum.

In the case of `C[C@H]1c2cccc(O)c2C(=O)C2=C(O)[C@]3(O)C(=O)C(C(N)=O)=C(O)[C@@H](N(C)C)[C@@H]3[C@@H](O)[C@@H]21.O` [DOXYCYCLINE], the Activity entry in [1] is “is not an inhibitor [-]”; in series [2], “is not an inhibitor [-]”; in series [3], “inhibitor [(at a rough estimate) 25 % of control]”.

Consider `CN(C)c1ccc(O)c2c1C[C@H]1C[C@H]3[C@H](N(C)C)C(O)=C(C(N)=O)C(=O)[C@@]3(O)C(O)=C1C2=O` [MINOCYCLINE], for which the Activity result in series [4] is “inhibitor [(at a rough estimate) 80 % of control]”; in [5], “is not an inhibitor [-]”; in [6], “is not an inhibitor [-]”; in [7], “inhibitor [(at a rough estimate) 10 % of control]”.

As for `CN(C)[C@@H]1C(O)=C(C(N)=O)C(=O)[C@@]2(O)C(O)=C3C(=O)c4c(O)cccc4[C@@](C)(O)[C@H]3[C@H](O)[C@@H]12` [OXYTETRACYCLINE], the Activity result in series [8] is “inhibitor [(at a rough estimate) 80 % of control]”; in series [9], “is not an inhibitor [-]”; in series [10], “is not an inhibitor [-]”; in series [11] it was “inhibitor [(at a rough estimate) 20 % of control]”.

For the molecule `CN(C)[C@@H]1C(O)=C(C(N)=O)C(=O)[C@@]2(O)C(O)=C3C(=O)c4c(O)cccc4[C@@](C)(O)[C@H]3C[C@@H]12` [TETRACYCLINE], the Activity result in series [12] is “inhibitor [(at a rough estimate) 85 % of control]”; in series [13], “inhibitor [(at a rough estimate) 75 % of control]”; in series [14], “is not an inhibitor [-]”; in [15], “inhibitor [(at a rough estimate) 45 % of control]”.

B1: Solute carrier family 22 member 7 (Homo sapiens) (protein)
chain: T4 sequence (Q9Y694 whole entry)
B1: the Km in series [16] came out at 440 µM.

B2: Solute carrier family 22 member 11 (Homo sapiens) (protein)
chain: T1 sequence (Q9NSA0 whole entry)
On to B2, for which the Michaelis-Menten constant (Km) in series [17] amounted to 123 µM.

B3: Organic anion transporter 3 (Homo sapiens) (protein)
chain: T2 sequence (Q8TCC7 whole entry)
For B3, in [18], the Km turned out to be 566 µM.
